Results from patent US20260224563A1, “CRYSTALLINE FORMS OF 6-(3-((5-CHLORO-2-METHOXYPYRIDINE)-3-SULFONAMIDO)-2,6-DIFLUOROPHENYL)-N-METHYLIMIDAZO[1,5-A]PYRAZINE-1-CARBOXAMIDE AND METHODS FOR USING THE SAME” (HIBERCELL, INC., priority 2023, published 2026).
Counter-ions that a name gives are not always drawn.

Assays:
Assay type in all cases: physicochemical
[1] = Water activity study of the crystalline potassium salt forms (acetone/water suspension, XRPD); settings: for Relative stability of crystalline forms: versus Form III of the potassium salt
Description: A water activity study of the potassium salt forms was conducted in two groups: (i) Form I and Form III of the potassium salt, and (ii) Form II and Form III of the potassium salt.
Each suspension was shaken at 700 rpm in a shaker at 25° C., 35° C., 45° C., and 50° C., and the sample was analyzed by XRPD.

[2] = Heating of potassium salt forms (XRPD/DSC after heating)
[3] = Solubility in simulated biological fluid (FaSSGF and FaSSIF) at 37° C., HPLC; pH of filtrate, XRPD of filter cake; settings: 37° C.; for pH (24 h): filtrate; for XRPD (filter cake, crystal form): up to 24 hours
Description: Approximately between 15 mg and 24 mg of sample was suspended in 5 mL or 8 mL of FaSSGF or FaSSIF, respectively. The resulting suspension was shaken at 700 rpm with a QQMSC-100 shaker at 37° C. The suspension was sampled and filtered at certain time intervals, which was achieved by sampling 1000 μL of each suspension which was then filtered and diluted, diluting the resulting filtrate for HPLC analysis to assess solubility. The pH of the filtrate was measured, and the filter cake was analyzed by XRPD.
Approximately 15 mg to 24 mg of sample was suspended in 5 or 8 mL of FaSSGF or FaSSIF, respectively. The resulting suspension was shaken at 700 rpm with a QQMSC-100 shaker at 37° C. The suspension was sampled and filtered at certain time intervals, which was achieved by sampling 1000 μL of each suspension was filtered and diluted, diluting the resulting filtrate for HPLC analysis to assess solubility. The pH of the filtrate was measured, and the filter cake was analyzed by XRPD.
Approximately 15 mg to 24 mg of sample was suspended in 5 or 8 mL of FaSSGF or FaSSIF, respectively. The resulting suspension was shaken at 700 rpm with a QQMSC-100 shaker at 37° C. The suspension was sampled and filtered in certain time interval, which was achieved by sampling 1000 μL of each suspension was filtered and diluted, diluting the resulting filtrate for HPLC analysis to assess solubility. The pH of the filtrate was measured, and the filter cake was analyzed by XRPD.

[4] = Dynamic vapor sorption (DVS); settings: for DVS weight gain: 0 to 90% relative humidity, 25° C.
Description: Moisture sorption/desorption data was collected on a Vsorp Dynamic Moisture Sorption Analyzer (ProUmid GmbH & Co. KG, Germany). The sample was placed into a tared sample chamber and automatically weighed.
• Equilibrium Condition: 0.01%/40 min • Time between weighing cycles: 10 minutes • Minimum time per climate cycle: 50 minutes • Maximum time per climate cycle: 2.0 hour • Balanced condition: 25° C. at 60% […] for 4 hours • Sample temperature: 25° C. • Adsorption: 70, 80, 90 • Desorption: 80, 70, 60, 50, 40, 30, 20, 10, 0 • Adsorption: 10, 20, 30, 40, 50, 60

[5] = Solid-state stability (60° C./closed and 40° C./75% relative humidity open, up to seven days; HPLC purity, XRPD)
Description: HPLC method for stability and solubility testing is listed below.
• Column: Ascentis® Express C18 4.6*150 mm*2.7 μm • Mobile Phase A: 0.05% trifluoroacetic acid in water • Mobile Phase B: Methanol • Gradient (T/B %): 0/10, 10/100, 13.5/10, 15/10 • Column Temperature: 40° C. • Detector: DAD; 220 nm • Flow rate: 1.0 mL/min • Injection volume: 1 μL • Concentration: 1 mg/mL • Run time: 15 minutes • Diluent: Methanol:Water 9:1 (v/v)
The solid-state stability of Form III of the potassium salt was performed using the following protocol: • (1) A sample of Form III of the potassium salt was placed at 60° C./closed and 40° C./75% relative humidity (open) conditions for up to seven days. At the onset of the test (day 0) and day 7 of the test, the sample was dissolved in a diluent to prepare a 1 mg/mL solution for HPLC purity analysis. The solid sample was analyzed by XRPD to assess the crystal form of each solid at day 7. […] The XRPD data confirmed the physicochemical stability of Form III of the potassium salt under both closed and open conditions. […]

[6] = listed as Form II of the free acid

## CNC(=O)c1ncn2cc(-c3c(F)ccc(NS(=O)(=O)c4cc(Cl)cnc4OC)c3F)ncc12 [Potassium salt Form II, 6-(3-((5-chloro-2-methoxypyridine)-3-sulfonamido)-2,6-difluorophenyl)-N-methylimidazo[1,5-a]pyrazine-1-carboxamide]
[1]; aw≥0.93 at temperatures≤25° C.
  Relative stability of crystalline forms: more stable
[2]; heating to 160° C.
  Changes to XRPD patterns and DSC thermograms after heating: slight change

## CNC(=O)c1ncn2cc(-c3c(F)ccc(NS(=O)(=O)c4cc(Cl)cnc4OC)c3F)ncc12 [Potassium salt Form I, 6-(3-((5-chloro-2-methoxypyridine)-3-sulfonamido)-2,6-difluorophenyl)-N-methylimidazo[1,5-a]pyrazine-1-carboxamide]
[1]; KF wt. %>0.19, 25-50° C., KF wt. %~0.1, 25° C. in acetone/water
  Time of conversion to Form III of the potassium salt: ≤ 1 days
[1]; KF wt. %≤0.1 at 35-50° C. in acetone/water
  Relative stability of crystalline forms: more stable
[2]; 24° C.±2° C. and 50-80% relative humidity
  Stability of the hydrate: stable
[2]; heating to 180° C.
  Changes to XRPD pattern or DSC thermogram upon heating: No changes

## CNC(=O)c1ncn2cc(-c3c(F)ccc(NS(=O)(=O)c4cc(Cl)cnc4OC)c3F)ncc12 [Free acid Form II, 6-(3-((5-chloro-2-methoxypyridine)-3-sulfonamido)-2,6-difluorophenyl)-N-methylimidazo[1,5-a]pyrazine-1-carboxamide]
[3]; FaSSGF
  pH (0 h): 1.60
  pH (24 h): 1.57
  XRPD (filter cake, crystal form): Unchanged
[3]; FaSSGF, 0.5 h
  Concentration: 200 ng/mL
[3]; FaSSGF, 2.0 h
  Concentration: 300 ng/mL
[3]; FaSSGF, 24 h
  Concentration: 1500 ng/mL
[3]; FaSSIF
  pH (0 h): 6.50
  pH (24 h): 6.49
  XRPD (filter cake, crystal form): Unchanged
[3]; FaSSIF, 0.25 h
  Concentration: 3000 ng/mL
[3]; FaSSIF, 0.5 h
  Concentration: 1400 ng/mL
[3]; FaSSIF, 0.75 h
  Concentration: 1300 ng/mL
[3]; FaSSIF, 1.0 h
  Concentration: 1300 ng/mL
[3]; FaSSIF, 2.0 h
  Concentration: 1600 ng/mL
[3]; FaSSIF, 24 h
  Concentration: 4000 ng/mL
[4]
  DVS weight gain: ~0%
[4]; [6]
  DVS weight gain: almost no weight gain
  XRPD pattern after DVS testing: No changes
[4]; class by weight gain to 80% relative humidity
  Hygroscopicity (DVS): Non-hygroscopic
[4]; relative to the class slightly hygroscopic
  Hygroscopicity (DVS): below slightly hygroscopic
[5]; 0 day
  Purity (Area %) 220 nm: 99.96 Area %
[5]; 40° C./75% RH (open), 7 days
  Purity (Area %) 220 nm: 99.94 Area %
[5]; 60° C./closed, 7 days
  Purity (Area %) 220 nm: 99.94 Area %
[5]; both closed (60° C.) and open (40° C./75% RH) conditions for seven days
  physical and chemical stability: maintained physical and chemical stability
